Measurements reported in patent publication US20140275128A1, “METHOD OF PROVIDING OCULAR NEUROPROTECTION” (INOTEK PHARMACEUTICALS CORPORATION, priority 2013, published 2014).

Assays:
retinal ganglion cells [1] = assay: Ischemia-induced retinal ganglion cell death in Long-Evans rats (high IOP insult, histology); type: in vivo; conditions: topical; for percent of RGC protected from ischemic insult (FIG. 4): two drops before 60 min ischemia at 110 mmHg, Compound A 2.5% ophthalmic suspension or 0.2% brimonidine tartrate, histology at 7 days; for retinal thinning of inner retina (GCL, IPL) after high IOP (FIG. 2): versus healthy contralateral eye, 7 days
Procedure: Treatment groups of 10 male Long Evans rats, six to eight weeks of age, were anesthetized by i.p. injection of a combination of ketamine (80 mg/kg) and xylazine (8 mg/kg). Additional ketamine was administered as needed to maintain appropriate anesthetic depth, and body temperature was maintained by use of an isothermal pad placed under the animal. Once under anesthesia, topical anesthetic (0.5% proparacaine hydrochloride, single drop) was applied to the cornea of the right eye. […] Several minutes after the second treatment, the anterior chamber of the right eye was cannulated with a 30G needle connected to an elevated reservoir of sterile Hanks balanced salt solution with a fluid level 59 inches above eye level (equivalent to a hydrostatic pressure of 110 mmHg) behind a closed stopcock. Five minutes after the second treatment (fifteen minutes after application of topical anesthetic), the stopcock was opened, and the rise in pressure was directly visualized by inflation of the globe. Animals that suffered an injury to the iris or cornea (beyond the single entry point) were excluded from the study. Sixty minutes after inducing the rise in pressure, the ischemic injury was terminated by closing the stopcock and removing the cannula. The needle entry wound was sealed with veterinary tissue adhesive and the animals allowed to recover from anesthesia before being returned to housing.
Seven days after ischemic injury animals were sacrificed by CO2 inhalation and globes dissected with the proximal optic nerves intact. The anterior chamber was removed, and the eyes were fixed for 30 minutes in 4% paraformaldehyde/PBS, followed by overnight incubation in 30% sucrose. Fixed eyes were trimmed of additional connective tissue and cut along a sagittal plane to generate a flat face for embedding, and the exposed retinal edge was attached to the sclera with tissue adhesive. The eye was infiltrated with increasing strengths of JB-4 embedding medium (glycol methacrylate; GMA), followed by embedding in JB-4 at 4° C. for sagittal sectioning. Optic nerves were co-embedded with their paired retina for transverse sectioning. Embedded tissues were sectioned through or near the optic nerve head at a thickness of 2 μm, and collected on slides for further analysis.
For histological analysis of retinas, sections were stained with 1% toluidine blue in absolute ethanol for 40 seconds, and cover slipped for microscopic examination. Images were captured using cellSens Dimension software on an Olympus BX61 upright microscope with a motorized stage, using a 20× objective and a resolution of 169 nm/pixel, and stitched together using the multiple image alignment procedure of the software. Five locations were chosen at random from across the retina, avoiding areas of extreme curvature or extreme histological disruption, and the thickness of the retinal layers was assessed, as follows: ganglion cells (GCL; count of large, round nuclei in layer near retinal surface in 100 μm region centered on chosen location), inner plexiform layer (IPL; distance from nuclei in ganglion cell layer to nuclei in inner nuclear layer), inner nuclear layer (INL), outer plexiform layer (OPL; distance from nuclei in INL to nuclei in outer nuclear layer), outer nuclear layer (ONL), and total retinal thickness (TR distance from retinal surface above nerve fiber layer to edge of ONL). […]

A2A adenosine receptor = biological target: T1, A2A adenosine receptor (Homo sapiens, UniProt P29274); assay: Adenosine A2A receptor binding, A1 > A2A selectivity; conditions: ratio Ki A2A / Ki A1
T1 construct: expressed in transfected cells; host or cells: CHO cells
T1 sequence (P29274 whole entry): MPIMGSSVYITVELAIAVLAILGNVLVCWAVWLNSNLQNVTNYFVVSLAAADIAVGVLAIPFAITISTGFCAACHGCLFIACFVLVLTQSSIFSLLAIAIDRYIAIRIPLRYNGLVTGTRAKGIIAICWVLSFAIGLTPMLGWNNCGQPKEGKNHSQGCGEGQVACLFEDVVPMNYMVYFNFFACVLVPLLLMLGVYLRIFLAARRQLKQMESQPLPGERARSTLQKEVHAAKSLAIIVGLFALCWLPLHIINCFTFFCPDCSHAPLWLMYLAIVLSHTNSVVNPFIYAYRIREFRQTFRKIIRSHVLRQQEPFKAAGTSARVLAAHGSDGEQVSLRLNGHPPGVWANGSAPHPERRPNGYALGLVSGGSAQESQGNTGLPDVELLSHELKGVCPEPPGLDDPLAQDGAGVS
Procedure: The cell suspension is then homogenized in ice-cold hypotonic buffer (5 mM Tris/HCl, 2 mM EDTA, pH 7.4) and the homogenate is spun for 10 minutes (4° C.) at 1,000 g.

[2] = cited from earlier work; for study participants who discontinued the study due to adverse events: Low-Pressure Glaucoma Treatment Study
retinal ganglion cells [3] = conditions: nerve crush, acute and chronic ocular hypertension models; cited from earlier work
[4] = test system: nerve fiber layer of the retina (RNFL); conditions: topical 0.2% solution, 12 months, compared to timolol; cited from earlier work

In the case of O=[N+]([O-])OC[C@H]1O[C@@H](n2cnc3c(NC4CCCC4)ncnc32)[C@H](O)[C@@H]1O [Compound A, ((2R,3S,4R,5R)-5-(6-(cyclopentylamino)-9H-purin-9-yl)-3,4-dihydroxytetrahydrofuran-2-yl)methyl nitrate], the “percent of RGC protected from ischemic insult (FIG. 4)” value (retinal ganglion cells [1]) is reported as 100%, the “percentage of protection across retinal layers (FIG. 3)” value (retinal ganglion cells [1]; two drops before ischemia, relative to vehicle and brimonidine) is reported as “greater relative to the vehicle, and slightly greater than the effects of brimonidine” and the “retinal thinning of inner retina (GCL, IPL) after high IOP (FIG. 2)” value (retinal ganglion cells [1]; two drops before ischemia) is reported as “blocked”.

With O=[N+]([O-])OC[C@H]1O[C@@H](n2cnc3c(NC4CCOC4)ncnc32)[C@H](O)[C@@H]1O (stereo partly drawn) [Compound D, ((2R,3S,4R,5R)-3,4-dihydroxy-5-(6-(tetrahydrofuran-3-ylamino)-9H-purin-9-yl)tetrahydrofuran-2-yl)methyl nitrate] the “A1 > A2A SELECTIVITY [KiA2(nm)/KiA1(nm)]” value (A2A adenosine receptor) was >9434.

In the case of Brc1c(NC2=NCCN2)ccc2nccnc12 [brimonidine], the “percent of RGC protected from ischemic insult (FIG. 4)” value (retinal ganglion cells [1]) is given as “around 80%”, the “retinal thinning of inner retina (GCL, IPL) after high IOP (FIG. 2)” value (retinal ganglion cells [1]; two drops before ischemia) is given as “blocked” and the “loss of visual field” value ([2]; 0.2% brimonidine, mean 30.0 month follow up, low pressure glaucoma, compared to timolol control) is given as “slow the loss of visual field”. For the same compound, the “study participants who discontinued the study due to adverse events” value [2] was 28.3%, the RGC survival (retinal ganglion cells [3]) was “improved RGC survival” and the “loss in thickness of the nerve fiber layer of the retina (RNFL)” value [4] was “reduce the loss in thickness of the nerve fiber layer of the retina”.

For CC(C)(C)NC[C@H](O)COc1nsnc1N1CCOCC1 [timolol], the “study participants who discontinued the study due to adverse events” value [2] is given as 11.4%.
